Tests used:
Experiment in all cases: Post-emergence test on weeds (greenhouse, spray at 2-3 leaf stage)
Format in all cases: in vivo
Set-up in all cases: key: Level 10: completely dead; Level 9: growth control rate greater than or equal to 90% and less than 100%; Level 8: growth control rate greater than or equal to 80% and less than 90%; Level 7: growth control rate greater than or equal to 70% and less than 80%; Level 6: growth control rate greater than or equal to 60% and less than 70%; Level 5: growth control rate greater than or equal to 50% and less than 60%; Level 4: growth control rate greater than or equal to 40% and less than 50%; Level 3: growth control rate greater than or equal to 30% and less than 40%; Level 2: growth control rate greater than or equal to 20% and less than 30%; Level 1: growth control rate less than 20%; Level 0: no effect
Conditions in all cases: 60 g a.i./ha, 3 weeks after application
[1] = system: Echinochloa crus-galli
Excerpt: (§1) The activity level criteria for plant damage (i.e., growth control rate) are as follows: • Level 10: completely dead; • Level 9: growth control rate greater than or equal to 90% and less than 100%; • Level 8: growth control rate greater than or equal to 80% and less than 90%; • Level 7: growth control rate greater than or equal to 70% and less than 80%; • Level 6: growth control rate greater than or equal to 60% and less than 70%; • Level 5: growth control rate greater than or equal to 50% and less than 60%; • Level 4: growth control rate greater than or equal to 40% and less than 50%; • Level 3: growth control rate greater than or equal to 30% and less than 40%; • Level 2: growth control rate greater than or equal to 20% and less than 30%; • Level 1: growth control rate less than 20%; • Level 0: no effect.
(§2) The above growth control rates are fresh weight control rates.
(§3) Monocotyledonous and dicotyledonous weed seeds (Descurainia sophia, Capsella bursa-pastoris, Abutilon theophrasti, Galium spurium, Stellaria media, Lithospermum arvense, Rorippa indica, Alopecurus aequalis, Alopecurus japonicus, Eleusine indica, Beckmannia syzigachne, Sclerochloa dura, Erigeron canadensis, Phleum paniculatum, Veronica polita, Bromus japonicus, Aegilops tauschii, Phalaris arundinacea, Amaranthus retrofexus, Chenopodium, Commelina communis, Cichorium endivia, Convolvulus arvensis, Cirsium arvense, Solanum nigrum, Acalypha australis, Digitaria sanguinalis, Echinochloa crus-galli, Setaria viridis, Setaa pumila, Lepochloa chinensis, Monochona vaginalis, Sagitta trifolia, Schoenoplectiella juncoides, Cypenus rotundus, Cyperus ira, Cyperus difformis, Fimbristylis, Portulaca oleracea, Xanthium sibiricum, Ipomoea nil, Eschenbachia japonica, etc.) and major crop seeds (wheat, maize, paddy rice, soybean, cotton, oilseed rape, millet, sorghum, potato, sesame, castor plant, etc.) were placed in plastic pots filled with soil and then covered with 0.5-2 cm of soil to allow them to grow in a favorable greenhouse environment. Two weeks after sowing, the test plants were treated at the stage of 2-3 leaves. The test compounds of the present invention were individually dissolved with acetone, then added with Tween® 80, with 1.5 L/ha of methyl oleate emulsifiable concentrate as a synergist, diluted into solutions of certain concentrations using certain amount of water, and sprayed to the plants using a spray tower. After drug application, the experimental results on weeds were collected after 3 weeks of cultivation in a greenhouse. The compounds were applied at 500, 250, […], 15, and 7.5 g a.i./ha in triplicate, and the results were averaged.

[2] = system: Setaria viridis
Excerpt: as §1, §2, §3

[3] = system: Amaranthus retroflexus
Excerpt: as §1, §2, §3

[4] = system: Digitaria sanguinalis
Excerpt: as §1, §2, §3

[5] = system: Veronica polita
Excerpt: as §1, §2, §3

[6] = system: Abutilon theophrasti
Excerpt: as §1, §2, §3

COCCOC(=O)C1(C)ON=C(c2cc(-c3ncc(C(F)(F)F)cc3Cl)c(F)cc2Cl)O1 (stereo not drawn) [Compound 110]
10: activity level (fresh weight growth control rate), Echinochloa crus-galli [1] | activity level (fresh weight growth control rate), Setaria viridis [2] | activity level (fresh weight growth control rate), Amaranthus retroflexus [3] | activity level (fresh weight growth control rate), Digitaria sanguinalis [4] | activity level (fresh weight growth control rate), Veronica polita [5] | activity level (fresh weight growth control rate), Abutilon theophrasti [6]

CCOC(=O)C1(C2CC2)ON=C(c2cc(-c3ncc(C(F)(F)F)cc3Cl)c(F)cc2Cl)O1 (stereo not drawn) [Compound 79]
10: activity level (fresh weight growth control rate), Echinochloa crus-galli [1] | activity level (fresh weight growth control rate), Setaria viridis [2] | activity level (fresh weight growth control rate), Amaranthus retroflexus [3] | activity level (fresh weight growth control rate), Digitaria sanguinalis [4] | activity level (fresh weight growth control rate), Veronica polita [5] | activity level (fresh weight growth control rate), Abutilon theophrasti [6]

CCOC(=O)C1ON=C(c2cc(-c3ncc(C(F)(F)F)cc3Cl)c(F)cc2Br)O1 (stereo not drawn) [Compound 25]
10: activity level (fresh weight growth control rate), Echinochloa crus-galli [1] | activity level (fresh weight growth control rate), Setaria viridis [2] | activity level (fresh weight growth control rate), Amaranthus retroflexus [3] | activity level (fresh weight growth control rate), Digitaria sanguinalis [4] | activity level (fresh weight growth control rate), Veronica polita [5] | activity level (fresh weight growth control rate), Abutilon theophrasti [6]

COC(=O)C1(C)ON=C(c2cc(-c3ncc(F)cc3F)c(F)cc2Cl)O1 (stereo not drawn) [Compound 7]
10: activity level (fresh weight growth control rate), Echinochloa crus-galli [1] | activity level (fresh weight growth control rate), Setaria viridis [2] | activity level (fresh weight growth control rate), Amaranthus retroflexus [3] | activity level (fresh weight growth control rate), Digitaria sanguinalis [4] | activity level (fresh weight growth control rate), Veronica polita [5] | activity level (fresh weight growth control rate), Abutilon theophrasti [6]

COC(=O)C1(C)ON=C(c2cc(-c3ncc(C(F)(F)F)cc3Cl)c(F)cc2Br)O1 (stereo not drawn) [Compound 9]
10: activity level (fresh weight growth control rate), Echinochloa crus-galli [1] | activity level (fresh weight growth control rate), Setaria viridis [2] | activity level (fresh weight growth control rate), Amaranthus retroflexus [3] | activity level (fresh weight growth control rate), Digitaria sanguinalis [4] | activity level (fresh weight growth control rate), Veronica polita [5] | activity level (fresh weight growth control rate), Abutilon theophrasti [6]

CCOC(=O)C1(C)ON=C(c2cc(-c3ccc(C(F)(F)F)cn3)c(F)cc2Cl)O1 (stereo not drawn) [Compound 29]
10: activity level (fresh weight growth control rate), Echinochloa crus-galli [1] | activity level (fresh weight growth control rate), Setaria viridis [2] | activity level (fresh weight growth control rate), Amaranthus retroflexus [3] | activity level (fresh weight growth control rate), Digitaria sanguinalis [4] | activity level (fresh weight growth control rate), Veronica polita [5] | activity level (fresh weight growth control rate), Abutilon theophrasti [6]

COCCCOC(=O)C1(C)ON=C(c2cc(-c3ncc(C(F)(F)F)cc3Cl)c(F)cc2Cl)O1 (stereo not drawn) [Compound 114]
10: activity level (fresh weight growth control rate), Echinochloa crus-galli [1] | activity level (fresh weight growth control rate), Setaria viridis [2] | activity level (fresh weight growth control rate), Amaranthus retroflexus [3] | activity level (fresh weight growth control rate), Digitaria sanguinalis [4] | activity level (fresh weight growth control rate), Veronica polita [5] | activity level (fresh weight growth control rate), Abutilon theophrasti [6]

CCOC(=O)C1(C)ON=C(c2cc(-c3ncc(C(F)(F)F)cc3Cl)c(F)cc2C#N)O1 (stereo not drawn) [Compound 56]
10: activity level (fresh weight growth control rate), Echinochloa crus-galli [1] | activity level (fresh weight growth control rate), Setaria viridis [2] | activity level (fresh weight growth control rate), Amaranthus retroflexus [3] | activity level (fresh weight growth control rate), Digitaria sanguinalis [4] | activity level (fresh weight growth control rate), Veronica polita [5] | activity level (fresh weight growth control rate), Abutilon theophrasti [6]

CC(C)=CCOC(=O)C1(C)ON=C(c2cc(-c3ncc(C(F)(F)F)cc3Cl)c(F)cc2Cl)O1 (stereo not drawn) [Compound 96]
10: activity level (fresh weight growth control rate), Echinochloa crus-galli [1] | activity level (fresh weight growth control rate), Setaria viridis [2] | activity level (fresh weight growth control rate), Amaranthus retroflexus [3] | activity level (fresh weight growth control rate), Digitaria sanguinalis [4] | activity level (fresh weight growth control rate), Veronica polita [5] | activity level (fresh weight growth control rate), Abutilon theophrasti [6]

CC(C)=NOC(=O)C1(C)ON=C(c2cc(-c3ncc(C(F)(F)F)cc3Cl)c(F)cc2Cl)O1 (racemic) [Compound 137]
10: activity level (fresh weight growth control rate), Echinochloa crus-galli [1] | activity level (fresh weight growth control rate), Setaria viridis [2] | activity level (fresh weight growth control rate), Amaranthus retroflexus [3] | activity level (fresh weight growth control rate), Digitaria sanguinalis [4] | activity level (fresh weight growth control rate), Veronica polita [5] | activity level (fresh weight growth control rate), Abutilon theophrasti [6]

COC(=O)C1(C)ON=C(c2cc(-c3ncc(C(C)(F)F)cc3Cl)c(F)cc2Cl)O1 (stereo not drawn) [Compound 10]
10: activity level (fresh weight growth control rate), Echinochloa crus-galli [1] | activity level (fresh weight growth control rate), Setaria viridis [2] | activity level (fresh weight growth control rate), Amaranthus retroflexus [3] | activity level (fresh weight growth control rate), Digitaria sanguinalis [4] | activity level (fresh weight growth control rate), Veronica polita [5] | activity level (fresh weight growth control rate), Abutilon theophrasti [6]

CCOC(=O)C1(C)ON=C(c2cc(-c3ncc(C)cc3F)c(F)cc2Cl)O1 (stereo not drawn) [Compound 32]
10: activity level (fresh weight growth control rate), Echinochloa crus-galli [1] | activity level (fresh weight growth control rate), Setaria viridis [2] | activity level (fresh weight growth control rate), Amaranthus retroflexus [3] | activity level (fresh weight growth control rate), Digitaria sanguinalis [4] | activity level (fresh weight growth control rate), Veronica polita [5] | activity level (fresh weight growth control rate), Abutilon theophrasti [6]

COC(=O)C1ON=C(c2cc(-c3ncc(C(F)(F)F)cc3Cl)c(F)cc2Br)O1 (stereo not drawn) [Compound 2]
10: activity level (fresh weight growth control rate), Echinochloa crus-galli [1] | activity level (fresh weight growth control rate), Setaria viridis [2] | activity level (fresh weight growth control rate), Amaranthus retroflexus [3] | activity level (fresh weight growth control rate), Digitaria sanguinalis [4] | activity level (fresh weight growth control rate), Veronica polita [5] | activity level (fresh weight growth control rate), Abutilon theophrasti [6]

From US20250206727A1, “HETEROCYCLIC SUBSTITUTED AROMATIC COMPOUND, PREPARATION METHOD THEREFOR, HERBICIDAL COMPOSITION AND APPLICATION” (QINGDAO KINGAGROOT CHEMICAL COMPOUND CO., LTD., priority 2022, published 2025)
